Patent US9353091B2 (priority 2009, dated 2016)

Columns and labels:
[1] = target: T1, HCV polymerase 1A (Δ21 NS5B) (Hepatitis C virus genotype 1a, UniProt P27958); experiment: HCV Polymerase Inhibition Assay (1a); assay type: biochemical
T1 construct: 20 to 50 nM Δ21 NS5B
Procedure: (§1) Reaction volume was 50 μL. The reaction was terminated by the addition of 1 volume of 4 mM spermine in 10 mM Tris-Cl pH 8.0, 1 mM EDTA. After incubation for at least 15 minutes at room temperature, the precipitated RNA was captured by filtering through a GF/B filter (Millipore) in a 96 well format. The filter plate was washed three times with 200 μL, each of 2 mM spermine, 10 mM Tris-Cl pH 8.0, 1 mM EDTA, and 2 times with ethanol. After air-drying, 30 μL, of Microscint 20 scintillation cocktail (Packard) was added to each well, and the retained cpm were determined by scintillation counting. […] Retained cpm were plotted vs. inhibitor concentration and fit to equation 1 using non-linear regression (ref. 1) to obtain the IC50 values: Retained cpm=A[sqrt{(IC50+It−Et)^2+4*IC50*Et}−(IC50+It−Et)]
(§2) Ref. Morrison, J. F. and S. R. Stone. 1985. Approaches to the study and analysis of the inhibition of enzymes by slow- and tight-binding inhibitors. Comments Mol. Cell. Biophys. 2: 347-368.
(§3) The sequence of the template RNA used was: 5′-[…] […] […] […] […] […] […] […] […] […] […] […] […] […] […] […] […]-3′ (SEQ ID NO: 1)

[2] = target: T2, HCV polymerase 1B (Δ21 NS5B) (Hepatitis C virus genotype 1b, UniProt P26663); experiment: HCV Polymerase Inhibition Assay (1b); assay type: biochemical
T2 construct: 20 to 50 nM Δ21 NS5B
T2 sequence (P26663 2420-2989, stated change not applied): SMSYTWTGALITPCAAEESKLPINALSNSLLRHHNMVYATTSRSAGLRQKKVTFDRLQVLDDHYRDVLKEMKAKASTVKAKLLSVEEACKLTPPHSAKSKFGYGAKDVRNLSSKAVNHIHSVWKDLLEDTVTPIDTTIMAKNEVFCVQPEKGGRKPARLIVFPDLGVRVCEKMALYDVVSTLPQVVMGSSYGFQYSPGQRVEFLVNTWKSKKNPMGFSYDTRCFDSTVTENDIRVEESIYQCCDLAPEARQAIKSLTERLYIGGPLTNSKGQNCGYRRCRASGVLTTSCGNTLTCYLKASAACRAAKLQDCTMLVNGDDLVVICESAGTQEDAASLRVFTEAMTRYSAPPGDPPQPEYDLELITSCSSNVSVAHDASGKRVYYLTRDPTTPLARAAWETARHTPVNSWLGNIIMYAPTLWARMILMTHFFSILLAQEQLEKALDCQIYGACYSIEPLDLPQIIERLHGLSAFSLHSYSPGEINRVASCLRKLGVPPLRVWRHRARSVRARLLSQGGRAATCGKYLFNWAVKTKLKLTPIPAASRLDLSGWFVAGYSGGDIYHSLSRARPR
Procedure: as §1, §2, §3

[3] = test system: genotype 1a-H77 subgenomic replicon cell line; experiment: HCV Polymerase Replicon Assay (genotype 1a-H77, luciferase reporter); assay type: cell-based; details: Hepatitis C virus, 72 h, 1a-H77 replicon, three days
[4] = test system: genotype 1b-Con1 subgenomic replicon cell line; experiment: HCV Polymerase Replicon Assay (genotype 1b-Con1, luciferase reporter); assay type: cell-based; details: Hepatitis C virus, 72 h, 1b-Con1 replicon, three days

T1 sequence (P27958 2421-2990, stated change not applied): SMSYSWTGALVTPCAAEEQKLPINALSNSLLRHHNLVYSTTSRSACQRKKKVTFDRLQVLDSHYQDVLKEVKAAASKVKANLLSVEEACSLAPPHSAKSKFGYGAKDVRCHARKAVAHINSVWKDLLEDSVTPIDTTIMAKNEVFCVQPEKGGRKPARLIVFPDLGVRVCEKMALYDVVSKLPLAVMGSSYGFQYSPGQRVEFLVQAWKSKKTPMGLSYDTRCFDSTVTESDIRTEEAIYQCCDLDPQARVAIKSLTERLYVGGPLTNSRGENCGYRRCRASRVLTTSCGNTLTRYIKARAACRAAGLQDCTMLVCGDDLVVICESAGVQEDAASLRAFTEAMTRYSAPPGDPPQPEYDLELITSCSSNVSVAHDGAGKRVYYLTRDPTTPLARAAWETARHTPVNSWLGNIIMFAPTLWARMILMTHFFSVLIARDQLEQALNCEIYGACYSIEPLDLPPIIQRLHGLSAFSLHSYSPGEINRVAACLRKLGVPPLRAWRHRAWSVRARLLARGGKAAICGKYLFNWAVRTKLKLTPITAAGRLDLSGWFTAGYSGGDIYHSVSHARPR

Row | SMILES | IC50 [1] [nM] | IC50 [2] [nM] | EC50 [3] [nM] | EC50 [4] [nM]
1 | COc1c(-c2ccc3c(c2)CC=C3CNS(C)(=O)=O)cc(-c2c[nH]c(=O)[nH]c2=O)cc1C(C)(C)C [compound 3, N-((6-(3-tert-butyl-5-(2,4-dioxo-1,2,3,4-tetrahydropyrimidin-5-yl)-2-methoxyphenyl)-1H-inden-3-yl)methyl)methanesulfonamide] | < 10 | < 10 | ≤ 10 | ≤ 10
2 | COc1c(-c2ccc3cc(NS(C)(=O)=O)ccc3c2)cc(N2CCNC2=O)cc1C(C)(C)C [compound 27, N-(6-(3-tert-butyl-2-methoxy-5-(2-oxoimidazolidin-1-yl)phenyl)naphthalen-2-yl)methanesulfonamide] | 10 to 100 | 10 to 100 | 100 to 1000 | 10 to 100
3 | COc1c(-c2ccc3cc(NS(C)(=O)=O)ccc3c2)cc(-c2c[nH]c(=O)[nH]c2=O)cc1C(F)(F)F [compound 49, N-(6-(5-(2,4-dioxo-1,2,3,4-tetrahydropyrimidin-5-yl)-2-methoxy-3-(trifluoromethyl)phenyl)naphthalen-2-yl)methanesulfonamide] | < 10 | 10 to 100 | 10 to 100 | ≤ 10
4 | COc1c(-c2ccc3c(c2)CC=C3CNS(C)(=O)=O)cc(-c2cn(C)c(=O)[nH]c2=O)cc1C(C)(C)C [compound 6, N-((6-(3-tert-butyl-2-methoxy-5-(1-methyl-2,4-dioxo-1,2,3,4-tetrahydropyrimidin-5-yl)phenyl)-1H-inden-3-yl)methyl)methanesulfonamide] | < 10 | 10 to 100 | 100 to 1000 | ≤ 10
5 | COc1c(-c2ccc3cc(NS(C)(=O)=O)ccc3c2)cc(N2C(=O)CN=C2O)cc1C(C)(C)C [compound 15, N-(6-(3-tert-butyl-5-(2-hydroxy-5-oxo-4,5-dihydro-1H-imidazol-1-yl)-2-methoxyphenyl)naphthalen-2-yl)methanesulfonamide] | < 10 | 10 to 100 | 100 to 1000 | 10 to 100
6 | COc1c(-c2ccc3c(c2)CC=C3CNS(C)(=O)=O)cc(-c2cn(S(C)(=O)=O)c(=O)[nH]c2=O)cc1C(F)(F)F [compound 52, N-((6-(2-methoxy-5-(1-(methylsulfonyl)-2,4-dioxo-1,2,3,4-tetrahydropyrimidin-5-yl)-3-(trifluoromethyl)phenyl)-1H-inden-3-yl)methyl)methanesulfonamide] | 10 to 100 | 10 to 100 | 100 to 1000 | ≤ 10
7 | COc1c(-c2ccc3cc(NS(C)(=O)=O)ccc3c2)cc(NC(C)=O)cc1C(C)(C)C [compound 47, N-(3-tert-butyl-4-methoxy-5-(6-(methylsulfonamido)naphthalen-2-yl)phenyl)acetamide] | 100 to 1000 | > 1000 | > 1000 | 100 to 1000
8 | C=Cc1c(-c2ccc3cc(NS(C)(=O)=O)ccc3c2)cc(-c2c[nH]c(=O)[nH]c2=O)cc1C(C)(C)C [compound 35, N-(6-(3-tert-butyl-5-(2,4-dioxo-1,2,3,4-tetrahydropyrimidin-5-yl)-2-vinylphenyl)naphthalen-2-yl)methanesulfonamide] | < 10 | < 10 | 10 to 100 | ≤ 10
9 | COc1c(-c2ccc3cc(NS(C)(=O)=O)ccc3c2)cc(N2CCCS2(=O)=O)cc1C(C)(C)C [compound 46, N-(6-(3-tert-butyl-5-(2-(1,1-dioxidoisothiazolidin-2-yl))-2-methoxyphenyl)naphthalene-2-yl)methanesulfonamide] | 10 to 100 | 10 to 100 | 100 to 1000 | 10 to 100
10 | CC(C)(C)c1cc(-c2c[nH]c(=O)[nH]c2=O)cc(-c2ccc3cc(NS(C)(=O)=O)ccc3c2)c1I [compound 34, N-(6-(3-tert-butyl-5-(2,4-dioxo-1,2,3,4-tetrahydropyrimidin-5-yl)-2-iodophenyl)naphthalen-2-yl)methanesulfonamide] | < 10 | 10 to 100 | 100 to 1000 | 10 to 100
11 | COc1c(Br)cc(-c2c[nH]c(=O)[nH]c2=O)cc1C(F)(F)F [compound 48, 5-(3-bromo-4-methoxy-5-(trifluoromethyl)phenyl)pyrimidine-2,4(1H,3H)-dione] | > 1000 | > 1000 | > 1000 | > 1000
